# Results published in patent publication US10590113B2, “6-hydroxy-4-oxo-1,4-dihydropyrimidine-5-carboxamides as APJ agonists” (priority 2016, dated 2020).
# Target: T1, human APJ receptor (Homo sapiens, UniProt P35414)
# T1 construct: expressed in transfected cells; host or cells: HEK293
# T1 sequence (P35414 1-380): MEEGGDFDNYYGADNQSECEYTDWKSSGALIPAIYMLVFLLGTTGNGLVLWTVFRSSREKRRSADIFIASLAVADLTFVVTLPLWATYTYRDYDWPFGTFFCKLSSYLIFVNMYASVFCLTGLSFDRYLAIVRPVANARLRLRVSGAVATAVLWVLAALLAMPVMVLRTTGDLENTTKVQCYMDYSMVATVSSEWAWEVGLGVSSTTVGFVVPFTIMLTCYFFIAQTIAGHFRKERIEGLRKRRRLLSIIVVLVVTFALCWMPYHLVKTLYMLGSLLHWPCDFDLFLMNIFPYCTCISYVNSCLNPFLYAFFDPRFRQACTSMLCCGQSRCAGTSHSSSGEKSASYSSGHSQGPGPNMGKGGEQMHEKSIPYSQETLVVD
# Experiment: Intracellular cAMP Accumulation Assay (APJ hcAMP, HTRF)
# Format: cell-based
# Details: not given
# In short: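 Stably transfected HEK293 cells (5,000/well) incubated 30 min at room temperature with serially diluted compound, […] and 2 μM forskolin. cAMP measured by HTRF after 60 min with detection reagents, quantified against a cAMP standard curve; EC50 from variable-slope sigmoidal fit of inhibition of forskolin-stimulated cAMP.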
row,EC50 [nM],Compound
1,0.01 to 10,"C=CCCc1nc(=O)c(C(=O)N2CC[C@@H](c3ccccc3)C2)c(O)n1-c1c(OC)cccc1OC [Example 16, (S)-2-(but-3-en-1-yl)-3-(2,6-dimethoxyphenyl)-6-hydroxy-5-(3-phenylpyrrolidine-1-carbonyl)pyrimidin-4(3H)-one]"
2,0.01 to 10,"CCCCc1nc(=O)c(C(=O)N2CCC(c3cccnc3)C2)c(O)n1-c1c(OC)cccc1OC (single isomer, unassigned) [Example 75, 2-butyl-1-(2,6-dimethoxyphenyl)-6-hydroxy-5-[3-(pyridin-3-yl)pyrrolidine-1-carbonyl]-1,4-dihydropyrimidin-4-one]"

# Same assay, conditions: human APJ, cAMP accumulation; potency range class; read-out: hAPJ cAMP EC50 Potency range
row,Compound,EC50 [nM]
1,"CCCCc1nc(=O)c(C(=O)N2CCC(c3ncc(F)cc3F)C2)c(O)n1[C@@H](COC)c1ccccc1 (stereo partly drawn) [Example 349, 2-butyl-5-[3-(3,5-difluoropyridin-2-yl)pyrrolidine-1-carbonyl]-6-hydroxy-3-[(1R)-2-methoxy-1-phenylethyl]-3,4-dihydropyrimidin-4-one]",0.01 to 10
2,"CCn1ccc(-c2nc(=O)c(C(=O)N3CCC(c4ncc(F)cc4F)C3)c(O)n2-c2cccc(C(C)C)c2)n1 (single isomer, unassigned) [Example 293, 5-[3-(3,5-difluoropyridin-2-yl)pyrrolidine-1-carbonyl]-2-(1-ethyl-1H-pyrazol-3-yl)-6-hydroxy-1-[3-(propan-2-yl)phenyl]-1,4-dihydropyrimidin-4-one]",0.01 to 10
3,"CCc1cccc(CC)c1-n1c(-c2ccn(C)n2)nc(=O)c(C(=O)N2CCC(c3ccc(F)cc3)C2)c1O (single isomer, unassigned) [Example 272, 1-(2,6-diethylphenyl)-5-[3-(4-fluorophenyl)pyrrolidine-1-carbonyl]-6-hydroxy-2-(1-methyl-1H-pyrazol-3-yl)-1,4-dihydropyrimidin-4-one]",0.01 to 10
4,"COc1cccc(OC)c1-n1c(-c2ccc(F)cc2)nc(=O)c(C(=O)N2CCC(c3ccccc3Cl)C2)c1O (single isomer, unassigned) [Example 229, 5-[3-(2-chlorophenyl)pyrrolidine-1-carbonyl]-1-(2,6-dimethoxyphenyl)-2-(4-fluorophenyl)-6-hydroxy-1,4-dihydropyrimidin-4-one]",0.01 to 10
5,"COc1cccc(OC)c1-n1c(-c2cc(C)ccn2)nc(=O)c(C(=O)N2CCC(c3ccc(F)cc3F)C2)c1O (single isomer, unassigned) [Example 262, 5-[3-(2,4-difluorophenyl)pyrrolidine-1-carbonyl]-1-(2,6-dimethoxyphenyl)-6-hydroxy-2-(4-methylpyridin-2-yl)-1,4-dihydropyrimidin-4-one]",0.01 to 10
6,"CCc1cccc(CC)c1-n1c(-c2csc(C)n2)nc(=O)c(C(=O)N2CC[C@H](c3ccccc3)C2)c1O [Example 301, 1-(2,6-diethylphenyl)-6-hydroxy-2-(2-methyl-1,3-thiazol-4-yl)-5-[(3R)-3-phenylpyrrolidine-1-carbonyl]-1,4-dihydropyrimidin-4-one]",0.01 to 10
7,"COc1cccc(OC)c1-n1c(-c2ccc(Cl)cn2)nc(=O)c(C(=O)N2CCC(c3c(F)cccc3F)C2)c1O (single isomer, unassigned) [Example 280, 2-(5-chloropyridin-2-yl)-5-[3-(2,6-difluorophenyl)pyrrolidine-1-carbonyl]-1-(2,6-dimethoxyphenyl)-6-hydroxy-1,4-dihydropyrimidin-4-one]",0.01 to 10

# Next, values leading:
row,EC50 [nM],Compound
1,0.01 to 10,"COc1cccc(OC)c1-n1c(-c2ccn(C)n2)nc(=O)c(C(=O)N2CCC(c3c(F)cccc3F)C2)c1O (single isomer, unassigned) [Example 251, 5-[3-(2,6-difluorophenyl)pyrrolidine-1-carbonyl]-1-(2,6-dimethoxyphenyl)-6-hydroxy-2-(1-methyl-1H-pyrazol-3-yl)-1,4-dihydropyrimidin-4-one]"
2,0.01 to 10,"CCOCc1nc(=O)c(C(=O)N2CCC(c3ccccc3C#N)C2)c(O)n1-c1c(OC)cccc1OC (single isomer, unassigned) [Example 362, 2-(1-(1-(2,6-dimethoxyphenyl)-2-(ethoxymethyl)-6-hydroxy-4-oxo-1,4-dihydropyrimidine-5-carbonyl)pyrrolidin-3-yl)benzonitrile]"
3,0.01 to 10,"COc1cccc(-c2nc(=O)c(C(=O)N3CCC(c4ncccc4F)C3)c(O)n2-c2c(OC)cccc2OC)c1 (single isomer, unassigned) [Example 245, 1-(2,6-dimethoxyphenyl)-5-[3-(3-fluoropyridin-2-yl)pyrrolidine-1-carbonyl]-6-hydroxy-2-(3-methoxyphenyl)-1,4-dihydropyrimidin-4-one]"
4,0.01 to 10,"COc1cccc(OC)c1-n1c(-c2ccc(C)cn2)nc(=O)c(C(=O)N2CCC(c3c(F)cccc3F)C2)c1O (single isomer, unassigned) [Example 274, 5-[3-(2,6-difluorophenyl)pyrrolidine-1-carbonyl]-1-(2,6-dimethoxyphenyl)-6-hydroxy-2-(5-methylpyridin-2-yl)-1,4-dihydropyrimidin-4-one]"

# Same assay, conditions: human APJ, intracellular cAMP accumulation; read-out: hAPJ cAMP EC50 Potency range
row,Compound,EC50 [nM]
1,"CCCCc1nc(=O)c(C(=O)N2CC[C@@H](c3ccccc3)C2)c(O)n1[C@@H](COC)c1ccccc1 [Example 127, 2-butyl-6-hydroxy-3-[(1R)-2-methoxy-1-phenylethyl]-5-[(3S)-3-phenylpyrrolidine-1-carbonyl]-3,4-dihydropyrimidin-4-one]",10 to 100
2,"CC[C@@H](c1cc(F)cc(F)c1)n1c(-c2ccn(C)n2)nc(=O)c(C(=O)N2CCC(c3cc(F)ccn3)C2)c1O (single isomer, unassigned) [Example 200]",0.01 to 10
3,"COc1cccc(OC)c1-n1c(COC(C)(C)C)nc(=O)c(C(=O)N2CCC(c3ccccc3F)C2)c1O (single isomer, unassigned) [Example 50, 2-[(tert-butoxy)methyl]-1-(2,6-dimethoxyphenyl)-5-[3-(2-fluorophenyl)pyrrolidine-1-carbonyl]-6-hydroxy-1,4-dihydropyrimidin-4-one]",0.01 to 10
4,"CC[C@@H](c1cc(F)cc(F)c1)n1c(-c2ccn(CC)n2)nc(=O)c(C(=O)N2CCC(c3ncccc3F)C2)c1O (single isomer, unassigned) [Example 186]",0.01 to 10
5,"CCCCc1nc(=O)c(C(=O)N2CC[C@@H](c3ccccc3)C2)c(O)n1[C@H](CC)c1ccccc1 [Example 128, 2-butyl-6-hydroxy-3-[(1R)-1-phenylpropyl]-5-[(3S)-3-phenylpyrrolidine-1-carbonyl]-3,4-dihydropyrimidin-4-one]",10 to 100
6,"COc1cccc(OC)c1-n1c(COC(C)(C)C)nc(=O)c(C(=O)N2CCC(c3ccccc3Cl)C2)c1O (single isomer, unassigned) [Example 42, 2-[(tert-butoxy)methyl]-5-[3-(2-chlorophenyl)pyrrolidine-1-carbonyl]-1-(2,6-dimethoxyphenyl)-6-hydroxy-1,4-dihydropyrimidin-4-one]",0.01 to 10
7,"CCCCc1nc(=O)c(C(=O)N2CC[C@@H](c3ccccc3)C2)c(O)n1[C@H](C)c1ccccc1 [Example 132, 2-butyl-6-hydroxy-3-[(1R)-1-phenylethyl]-5-[(3S)-3-phenylpyrrolidine-1-carbonyl]-3,4-dihydropyrimidin-4-one]",10 to 100
8,"CC[C@@H](c1cc(F)cc(F)c1)n1c(-c2ccn(CC)n2)nc(=O)c(C(=O)N2CCC(c3ccc(Cl)cn3)C2)c1O (single isomer, unassigned) [Example 213]",0.01 to 10
9,"CCCCc1nc(=O)c(C(=O)N2CC[C@@H](c3ccccc3)C2)c(O)n1[C@@H](CCC)c1ccccc1 [Example 153, 2-butyl-6-hydroxy-3-[(1S)-1-phenylbutyl]-5-[(3S)-3-phenylpyrrolidine-1-carbonyl]-3,4-dihydropyrimidin-4-one]",10 to 100

# Further lines, results first:
row,EC50 [nM],Compound
1,0.01 to 10,"COc1cccc(OC)c1-n1c(COC2CC2)nc(=O)c(C(=O)N2CCC(c3cccc(F)c3)C2)c1O (stereo not drawn) [Example 15, 2-(cyclopropoxymethyl)-1-(2,6-dimethoxyphenyl)-5-(3-(3-fluorophenyl)pyrrolidine-1-carbonyl)-6-hydroxypyrimidin-4(1H)-one]"
2,10 to 100,"CCCCc1nc(=O)c(C(=O)N2CC[C@H](c3ccccc3)C2)c(O)n1[C@@H](C)c1cccc(OC)c1 [Example 139, 2-butyl-6-hydroxy-3-[(1S)-1-(3-methoxyphenyl)ethyl]-5-[(3R)-3-phenylpyrrolidine-1-carbonyl]-3,4-dihydropyrimidin-4-one]"
3,0.01 to 10,"COc1cccc(OC)c1-n1c(CCC2CC2)nc(=O)c(C(=O)N2CCC(c3ccc(F)cn3)C2)c1O (single isomer, unassigned) [Example 177, 2-(2-cyclopropylethyl)-1-(2,6-dimethoxyphenyl)-5-[3-(5-fluoropyridin-2-yl)pyrrolidine-1-carbonyl]-6-hydroxy-1,4-dihydropyrimidin-4-one]"
4,0.01 to 10,"CCCCc1nc(=O)c(C(=O)N2CCC(c3ccncc3)CC2)c(O)n1-c1c(OC)cccc1OC [Example 71, 2-butyl-1-(2,6-dimethoxyphenyl)-6-hydroxy-5-[4-(pyridin-4-yl)piperidine-1-carbonyl]-1,4-dihydropyrimidin-4-one]"

# Same assay, conditions: read-out: hAPJ cAMP EC50 Potency range
row,EC50 [nM],Compound
1,0.01 to 10,"CCCCc1nc(=O)c(C(=O)N2CCC(Oc3ccc(Cl)cc3)CC2)c(O)n1-c1c(OC)cccc1OC [Example 373, 2-butyl-5-(4-(4-chlorophenoxy)piperidine-1-carbonyl)-1-(2,6-dimethoxyphenyl)-6-hydroxypyrimidin-4(1H)-one]"
